Measurements from patent US8404650B2, “Methods of treating cancer with doxazolidine and prodrugs thereof” (priority 2005, dated 2013).
Where two headings read alike, the source gives them in different places.

What was measured:
αvβ3 integrin = αvβ3 integrin (Homo sapiens, UniProt P05106+P06756); settings: cited from earlier work
Hep G2 = assay: Growth inhibition of Hep G2 liver cancer cells; format: cell-based, human; settings: crystal violet
From the text: (§1) Cell growth inhibition experiments initially focused on MCF-7, MCF-7/Adr, SK-HEP-1, and Hep G2 cancer cells as well as rat cardiomyocytes as a measure of cardiotoxicity and Vero cells (green monkey kidney cells) as an additional measure of normal cell toxicity. […]

[1] = Uptake of pentyl carbamate relative to Dox, flow cytometry, with and without fetal bovine serum; format: cell-based
Description: Uptake of the pentyl carbamate relative to uptake of Dox was measured by flow cytometry, monitoring fluorescence of the Dox fluorophore as a measure of drug in cells. The measurements were performed over a period of 3 h in the presence and absence of fetal bovine serum, and the results are shown in FIG. 4. […] Further, the presence of 10% fetal bovine serum decreased the uptake of doxorubicin and the pentyl carbamate by about 25%. The more rapid uptake of the pentyl carbamate in the presence and absence of serum probably reflects its increased hydrophobicity relative to that of doxorubicin which is a cation at physiological pH. Increased hydrophobicity may also be the explanation for the effect of serum on the uptake of the carbamate; namely, the carbamate binds to serum proteins reducing drug uptake.

[2] = Hydrolytic stability of Doxaz carbamate prodrugs in aqueous media; format: physicochemical; settings: pH 7.4 buffer, no cells or growth media, 24 h, ambient temperature, HPLC
SK-HEP-1 = assay: Growth inhibition of SK-HEP-1 liver cancer cells; format: cell-based, human; settings: crystal violet
From the text: as §1

MCF-7 = assay: Growth inhibition of MCF-7 sensitive breast cancer cells (colony formation, crystal violet); format: cell-based, human; settings: for IC50: Homo sapiens
Description: (§2) In vitro Activity. […] This cell suspension was dispensed in 200 μL aliquots (1000 cells/well) into the inside wells of 96-well tissue culture plates. Outside wells contained 200 μL of media. […] The medium was replaced with 90 μL of growth medium prior to addition of the drug. Doxaz was dissolved in DMSO at concentrations ranging from 50 μM to 1 mM. […] Serial dilutions (1:3 and 1:10) were made in sterile DMSO to yield seven solutions of decreasing drug concentration at 100× the respective working concentrations. […] Additionally, two lanes were treated with 10 μL of growth medium containing 10% sterile DMSO and one lane was treated with 90 μL of 1.5 M Tris HCl. […]
(§3) Cell growth inhibition experiments initially focused on MCF-7, MCF-7/Adr, SK-HEP-1, and Hep G2 cancer cells as well as rat cardiomyocytes as a measure of cardiotoxicity and Vero cells (green monkey kidney cells) as an additional measure of normal cell toxicity.
(§4) Activity of plasmin-activated prodrugs.
(§5) A more thorough characterization of the growth inhibition of a variety of cancer cells as well as rat cardiomyocytes by Formula IV (aFK-PABC-Doxaz) was evaluated in comparison with inhibition of growth by Doxaz, Dox and aFK-PABC-Dox. Cells were treated with drug for 3 h and colony growth was measured at 3 to 5 days when cells reached about 80% confluence. […] The breast cancer cell lines represent the multi-drug resistant (MDR) phenotype with MCF-7/Adr cells and a cell line that is transfected with the gene for urokinase plasminogen activator (uPA), the primary enzyme responsible for cleavage of plasminogen to plasmin. Rat cardiomyocytes served as a model for comparison of drug cardiotoxicity.

MCF-7/Adr = assay: Growth inhibition of multidrug resistant MCF-7/Adr breast cancer cells (crystal violet); format: cell-based; settings: for IC50: Homo sapiens, NCI/ADR-RES
Description: as §2, §3, §4, §5

DU-145 = assay: Growth inhibition of DU-145 prostate cancer cells; format: cell-based
Description: as §2
(§6) SHP-77 small cell lung cancer cells were also of interest because they express modest amounts of both enzymes. Inhibition of the growth of cardiomyocytes was used as a measure of cardiotoxicity, and inhibition of the growth of Vero cells, green monkey kidney cells, was again used as another measure of toxicity to normal cells.
as §5, with “Cells were treated with drug for 3 h and colony growth was measured at 3 to 5 days when cells reached about 80% confluence.” left out

SHP-77 = assay: Growth inhibition of SHP-77 small cell lung cancer cells; format: cell-based; settings: 24 h drug treatment; crystal violet
From the text: as §6

[3] = system: H9c2(2-1) rat cardiomyocytes; assay: Growth inhibition of rat cardiomyocytes as a measure of cardiotoxicity; format: cell-based; settings: 24 h drug treatment; crystal violet
Description: Biological activity of simple Doxazolidine carbamates. Since the prodrug carbamates were designed to be activated by carboxylesterases CES1 (hCE1) and/or CES2 (hiCE), cell lines of interest were measured for expression of the respective mRNAs using reverse transcription (RT) followed by PCR (polymerase chain reaction). Cancer cell lines investigated included SHP-77 resistant small cell lung, DU-145 prostate, MCF-7 sensitive breast, MCF-7/Adr resistant breast, SK-HEP-1 liver, and Hep G2 liver cells. As a measure of possible cardiotoxicity, H9c2(2-1) rat cardiomyocytes were also investigated. Cardiotoxicity is relevant because the ultimate product of metabolism and subsequent hydrolysis of these carbamates is doxorubicin, which is cardiotoxic. […] Additionally, the rat cardiomyocytes, H9c2(2-1), also express more CES2 than CES1.
Cell growth inhibition experiments initially focused on MCF-7, MCF-7/Adr, SK-HEP-1, and Hep G2 cancer cells as well as rat cardiomyocytes as a measure of cardiotoxicity and Vero cells (green monkey kidney cells) as an additional measure of normal cell toxicity. The butyl and pentyl carbamates inhibited the growth of MCF-7, MCF-7/Adr, and SK-HEP-1 cell lines with a 24 h drug treatment period with some selectivity for cancer cells over cardiomyocytes relative to growth inhibition by Dox as shown in Table 2. […] The relative inactivity of the ethyl carbamate may indicate that a substantial lipophilic interaction is required at the active site of the carboxylesterases to hold the Doxaz substrate.
Biological activity of Doxazolidine carbamates with self-eliminating spacer. […] SHP-77 small cell lung cancer cells were also of interest because they express modest amounts of both enzymes. Inhibition of the growth of cardiomyocytes was used as a measure of cardiotoxicity, and inhibition of the growth of Vero cells, green monkey kidney cells, was again used as another measure of toxicity to normal cells. They also show more activity against the cancer cells that express higher levels of CES1. Of particular note is the higher activity against Hep G2 cells than against SK-HEP-1 cells. […] The low toxicity of pentyl PABC-Doxaz to cardiomyocytes relative to the toxicity of Dox is encouraging and consistent with the low level of expression of CES1 in cardiomyocytes.
A more thorough characterization of the growth inhibition of a variety of cancer cells as well as rat cardiomyocytes by Formula IV (aFK-PABC-Doxaz) was evaluated in comparison with inhibition of growth by Doxaz, Dox and aFK-PABC-Dox. Cells were treated with drug for 3 h and colony growth was measured at 3 to 5 days when cells reached about 80% confluence. The cancer cells included one prostate cancer cell line (DU-145), three related breast cancer cell lines (MCF-7, MCF-7/Adr, and MCF-7 uPA), and one pancreatic cancer cell line (Mia PaCa-2). The breast cancer cell lines represent the multi-drug resistant (MDR) phenotype with MCF-7/Adr cells and a cell line that is transfected with the gene for urokinase plasminogen activator (uPA), the primary enzyme responsible for cleavage of plasminogen to plasmin. Rat cardiomyocytes served as a model for comparison of drug cardiotoxicity. Growth inhibition was also measured with added plasmin. aFK-PABC-Doxaz inhibited the growth of most of the cancer cells 0.5 log or more better than did aFK-PABA-Dox. Although not as dramatic, this differential response paralleled the differential response between Doxaz and Dox which is approximately two logs except for the MDR expressing, MCF-7/Adr cells which show more than three logs differential response. […] Addition of 0.01 unit/mL of plasmin has no effect on the activity of Dox but increases the activity of both aFK-PABC-Doxaz and aFK-PABC-Dox, in some cases by more than a log. Addition of 0.01 unit/mL plasminogen increases the activity of aFK-PABC-Doxaz on average by 0.3 log. […]

Vero cells = assay: Growth inhibition of Vero cells as a measure of normal cell toxicity (MTT); format: cell-based, green monkey
From the text: as §3, §6

[4] = buffer; cited from earlier work
cancer cells [5] = settings: background statement; cited from earlier work
Water solubility = format: physicochemical; settings: as di-cation
human plasmin = human plasmin (Homo sapiens, UniProt P00747); assay: Plasmin activation of prodrug and release of Doxaz (HPLC); format: biochemical; settings: 37° C.
Chain of human plasmin (P00747 581-810 limits assumed): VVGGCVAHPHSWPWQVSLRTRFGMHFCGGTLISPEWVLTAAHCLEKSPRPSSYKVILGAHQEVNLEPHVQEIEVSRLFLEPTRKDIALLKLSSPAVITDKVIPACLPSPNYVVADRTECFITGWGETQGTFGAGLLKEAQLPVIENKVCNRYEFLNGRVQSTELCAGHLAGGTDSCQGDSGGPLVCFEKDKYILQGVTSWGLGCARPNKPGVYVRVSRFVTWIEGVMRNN
Chain of human plasmin (P00747 97-580 partner limits assumed): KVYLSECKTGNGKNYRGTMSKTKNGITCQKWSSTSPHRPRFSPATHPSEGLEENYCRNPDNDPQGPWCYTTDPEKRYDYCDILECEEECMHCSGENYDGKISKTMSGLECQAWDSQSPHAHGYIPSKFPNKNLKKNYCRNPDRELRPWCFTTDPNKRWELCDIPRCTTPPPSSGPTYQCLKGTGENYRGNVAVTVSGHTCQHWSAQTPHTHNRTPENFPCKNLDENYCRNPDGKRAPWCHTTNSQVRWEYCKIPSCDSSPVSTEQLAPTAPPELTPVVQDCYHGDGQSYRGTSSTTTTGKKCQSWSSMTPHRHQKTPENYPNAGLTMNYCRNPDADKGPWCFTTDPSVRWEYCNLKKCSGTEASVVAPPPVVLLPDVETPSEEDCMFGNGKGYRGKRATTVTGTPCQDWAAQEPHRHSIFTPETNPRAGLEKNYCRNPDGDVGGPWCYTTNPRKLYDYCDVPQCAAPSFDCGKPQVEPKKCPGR
Description: Both Formulas IV and V were incubated with 15 μg/ml human plasmin and monitored by HPLC at 37° C. Just 4 min after the addition of plasmin, 20 percent of compound 10 was converted to Doxaz and roughly 50% of that Doxaz had hydrolyzed to Doxorubicin. Within 23 minutes, nearly all of the prodrug was converted to Doxaz and subsequently hydrolyzed to Doxorubicin.

cancer cells [6] = assay: Cancer cell growth inhibition, statements over several or unnamed cell lines; format: cell-based; settings: read-out: Cancer cell growth inhibition IC50 in the presence of plasmin
Description: In vitro Activity. […] This cell suspension was dispensed in 200 μL aliquots (1000 cells/well) into the inside wells of 96-well tissue culture plates. Outside wells contained 200 μL of media. […] The medium was replaced with 90 μL of growth medium prior to addition of the drug. Doxaz was dissolved in DMSO at concentrations ranging from 50 μM to 1 mM. […] Serial dilutions (1:3 and 1:10) were made in sterile DMSO to yield seven solutions of decreasing drug concentration at 100× the respective working concentrations. […] Additionally, two lanes were treated with 10 μL of growth medium containing 10% sterile DMSO and one lane was treated with 90 μL of 1.5 M Tris HCl. The cells were incubated at 37° C. for 3 h, at which time the drug solutions were replaced with 200 μL of fresh growth medium.
as §5

[7] = 24 h drug treatment, crystal violet

Chain of αvβ3 integrin (P06756 31-889 limits assumed): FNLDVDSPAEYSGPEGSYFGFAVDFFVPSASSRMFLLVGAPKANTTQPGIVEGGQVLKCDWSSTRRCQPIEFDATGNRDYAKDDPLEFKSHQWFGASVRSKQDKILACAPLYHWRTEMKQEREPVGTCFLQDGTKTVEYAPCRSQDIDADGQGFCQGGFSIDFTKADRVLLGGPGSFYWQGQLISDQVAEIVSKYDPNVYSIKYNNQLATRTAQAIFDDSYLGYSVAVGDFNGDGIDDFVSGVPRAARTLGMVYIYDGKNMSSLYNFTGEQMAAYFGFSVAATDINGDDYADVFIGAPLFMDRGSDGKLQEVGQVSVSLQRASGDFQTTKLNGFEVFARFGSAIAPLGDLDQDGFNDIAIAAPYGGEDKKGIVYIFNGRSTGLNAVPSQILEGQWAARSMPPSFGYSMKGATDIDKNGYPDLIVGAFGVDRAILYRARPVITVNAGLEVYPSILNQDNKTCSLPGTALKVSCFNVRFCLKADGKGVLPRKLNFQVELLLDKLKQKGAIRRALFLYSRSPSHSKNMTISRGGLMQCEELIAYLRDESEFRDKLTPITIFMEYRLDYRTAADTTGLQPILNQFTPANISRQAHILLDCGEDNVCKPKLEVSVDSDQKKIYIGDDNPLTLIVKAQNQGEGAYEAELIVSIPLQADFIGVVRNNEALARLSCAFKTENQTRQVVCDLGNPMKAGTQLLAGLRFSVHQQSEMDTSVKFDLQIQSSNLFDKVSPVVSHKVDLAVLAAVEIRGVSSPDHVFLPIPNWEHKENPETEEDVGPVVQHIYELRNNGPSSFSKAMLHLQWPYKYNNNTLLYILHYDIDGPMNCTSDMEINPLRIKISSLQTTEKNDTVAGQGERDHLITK
Chain of αvβ3 integrin (P06756 891-1048 partner limits assumed): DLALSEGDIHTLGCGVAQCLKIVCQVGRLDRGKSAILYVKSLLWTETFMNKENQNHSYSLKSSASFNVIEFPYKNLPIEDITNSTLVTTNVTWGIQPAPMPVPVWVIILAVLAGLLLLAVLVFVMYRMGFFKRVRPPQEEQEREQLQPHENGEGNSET
Chain of αvβ3 integrin (P05106 27-788): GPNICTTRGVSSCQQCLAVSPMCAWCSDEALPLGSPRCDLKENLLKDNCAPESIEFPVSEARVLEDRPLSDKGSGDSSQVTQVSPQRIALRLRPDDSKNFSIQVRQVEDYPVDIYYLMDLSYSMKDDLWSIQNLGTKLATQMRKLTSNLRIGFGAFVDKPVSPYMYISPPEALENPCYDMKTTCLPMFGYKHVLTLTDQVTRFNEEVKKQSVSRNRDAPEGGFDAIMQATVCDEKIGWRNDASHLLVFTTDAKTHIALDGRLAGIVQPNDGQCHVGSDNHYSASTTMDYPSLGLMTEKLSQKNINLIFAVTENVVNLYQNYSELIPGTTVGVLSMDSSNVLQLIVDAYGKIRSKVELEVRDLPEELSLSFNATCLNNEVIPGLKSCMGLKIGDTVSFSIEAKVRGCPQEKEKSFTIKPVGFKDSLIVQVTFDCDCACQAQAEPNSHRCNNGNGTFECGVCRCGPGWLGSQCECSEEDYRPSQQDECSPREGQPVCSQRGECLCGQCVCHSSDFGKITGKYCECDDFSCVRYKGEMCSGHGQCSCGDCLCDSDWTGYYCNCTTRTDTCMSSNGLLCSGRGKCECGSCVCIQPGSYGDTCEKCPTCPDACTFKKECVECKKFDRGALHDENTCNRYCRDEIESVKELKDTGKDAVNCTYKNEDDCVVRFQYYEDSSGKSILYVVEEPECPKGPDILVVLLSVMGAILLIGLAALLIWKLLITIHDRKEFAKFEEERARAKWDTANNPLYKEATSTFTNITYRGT

## Lys-Arg-Gly-Asp-phe (KRGD; C-terminal D-Phe; printed: Lys-Arg-Gly-Asp-) [KRGDf]
αvβ3 integrin
  Specificity for αvβ3 over αIIbβ3 platelet receptor: 1000 fold

## CCCCCOC(=O)N1COC2C(C)OC(OC3CC(O)(C(=O)CO)Cc4c(O)c5c(c(O)c43)C(=O)c3c(OC)cccc3C5=O)CC21 (centres unmarked) [Doxaz Pentyl Carbamate]
Hep G2; 3 h drug treatment
  Growth inhibition IC50, Hep G2, 3 h: >−6 log of the molar concentration
Hep G2; 24 h drug treatment
  Growth inhibition IC50, Hep G2, 24 h: −6.5 ± 0.3 log of the molar concentration
[1]; 10% fetal bovine serum, flow cytometry, 3 h
  Decrease of uptake by 10% fetal bovine serum: about 25%
[1]; flow cytometry over 3 h, with and without serum
  Uptake relative to Dox: taken up at a higher level and more rapidly than Dox
[2]
  Stability to hydrolysis in buffer: stable to hydrolysis
SK-HEP-1; 3 h drug treatment
  Growth inhibition IC50, SK-HEP-1, 3 h: >−6 log of the molar concentration
SK-HEP-1; 24 h drug treatment
  Growth inhibition IC50, SK-HEP-1, 24 h: −6.7 ± 0.1 log of the molar concentration
MCF-7; 3 h drug treatment, crystal violet
  Growth inhibition IC50, MCF-7, 3 h: >−6 log of the molar concentration
MCF-7; [7]
  Growth inhibition IC50, MCF-7, 24 h: −6.1 ± 0.03 log of the molar concentration
MCF-7/Adr; [7]
  Growth inhibition IC50, MCF-7/Adr, 24 h: −6.0 ± 0.09 log of the molar concentration
DU-145; [7]
  Cell growth inhibition IC50, DU-145: −6.0 ± 0.04 log of molar concentrations
SHP-77
  Cell growth inhibition IC50, SHP-77: −6.3 ± 0.3 log of molar concentrations
[3]
  Growth inhibition IC50, H9c2(2-1), 24 h: −6.6 ± 0.1 log of the molar concentration
Vero cells; 3 h drug treatment
  Growth inhibition IC50, Vero, 3 h: −5.4 ± 0.1 log of the molar concentration
Vero cells; 24 h drug treatment
  Growth inhibition IC50, Vero, 24 h: −5.3 ± 0.01 log of the molar concentration

## COc1cccc2c1C(=O)c1c(O)c3c(c(O)c1C2=O)C[C@@](O)(C(=O)CO)C[C@@H]3O[C@H]1C[C@H]2C(OCN3CN2CO[C@H]2[C@@H](C)O[C@@H](O[C@H]4C[C@](O)(C(=O)CO)Cc5c(O)c6c(c(O)c54)C(=O)c4c(OC)cccc4C6=O)C[C@@H]23)[C@H](C)O1 (some centres unmarked) [EpiF, Epidoxoform, reference compound]
[4]
  Half-life, stability in water with respect to loss of formaldehyde: 2 h
Cancer cells [5]
  Less active than DoxF in cancer cell growth inhibition: 50 fold
MCF-7; MCF7, 3 h, read-out: IC50 MCF-7
  IC50: 0.065 µM
MCF-7/Adr; 3 h, read-out: IC50 MCF-7/Adr
  IC50: 0.07 µM
DU-145; Homo sapiens, DU-145, 3 h, read-out: IC50 DU-145
  IC50: 0.026 ± 0.005 µM

## COc1cccc2c1C(=O)c1c(O)c3c(c(O)c1C2=O)C[C@@](O)(C(=O)CO)C[C@@H]3O[C@H]1C[C@H]2[C@@H](OCN2C(=O)OCc2ccc(NC(=O)OCc3ccc(NC(=O)[C@H](CCCCN)NC(=O)[C@H](Cc4ccccc4)NC(=O)[C@@H](C)N)cc3)cc2)[C@H](C)O1 [Formula V]
Water solubility
  Water solubility: excellent water solubility
MCF-7; MCF7, 3 h, read-out: IC50 MCF-7 + plasmin
  IC50: 0.009 µM
MCF-7; MCF7, read-out: IC50 MCF-7
  IC50: 0.06 µM
MCF-7/Adr; 3 h, read-out: IC50 MCF-7/Adr + plasmin
  IC50: 0.01 µM
MCF-7/Adr; read-out: IC50 MCF-7/Adr
  IC50: 0.1 µM
Human plasmin; 15 μg/ml human plasmin
  Time until nearly all of the prodrug was converted to Doxaz: ≤ 23 min
Human plasmin; 4 min after addition of 15 μg/ml human plasmin
  Prodrug converted to Doxaz: 20%
Cancer cells [6]
  IC50: 0.005 µM
